Measured values: patent US20240247035A1, “STAPLED ANTIMICROBIAL PEPTIDES (STAMPS) AND USES THEREOF” (Lytica Therapeutics, Inc., priority 2021, published 2024)
Values after ≈ are worked out from the molar mass of the structure shown. Bridge positions count the residues as written; N and C are the ends. Square brackets hold non-standard residues; d marks the D form. Peptide text beside a SMILES is read from it. Phe(4-tBu) = CC(C)(C)c1ccc(C[C@H](N)C(=O)O)cc1; S5 = C=CCCC[C@](C)(N)C(=O)O

Legend:
[1] = 48 hours cytotoxicity assay (CellTiter-Glo), liver toxicity; assay type: cell-based; details: human
Procedure: (§1) Cell culture: RPTEC were maintained in MEM media supplemented with growth factors. HEPG2 cell line was maintained in Eagle's Minimum Essential Medium (EMEM) supplemented with fetal bovine serum to a final concentration of 10%.
48 hours cytotoxicity assay: Cells were plated in a 96-well format, and after 4 hour incubation to allow attachment, serial dilutions of StAMPs from a 5 mg/mL water stock, or vehicle, were then added to the cells in a final volume of 100 μl. After incubating at 37° C. for 48 hours, 100 μl of CellTiter-Glo® reagent was added to the cells, and the plates were incubated 10 minutes at room temperature. Luminescence was then measured on a microplate reader.
(§2) Renal toxicity was measured after 90 minutes of incubation, while liver toxicity was measured after 48 hours of incubation with StAMPs. N/A=not tested.

[2] = 90 minute cytotoxicity assay (LDH release), renal toxicity; assay type: cell-based; details: human
Procedure: as §1
90 minute cytotoxicity assay: Cells were plated in a 96-well format, and after overnight incubation, media was replaced with fresh media. Serial dilutions of StAMPs from a 5 mg/mL water stock, or vehicle, were added to the cells in a final volume of 100 μl. After incubating at 37° C. for 90 min, 50 μl of cell culture media was transferred to a clear 96-well plate, incubated with 50 μl of lactate dehydrogenase (LDH) assay reagent for 10 min, and absorbance measured at 490 nm on a microplate reader.
as §2

| SMILES | IC50 at 48 hours [1] | IC50 at 90 min [2] |
| --- | --- | --- |
| CC[C@H](C)[C@H](NC(=O)[C@H](CCCCN)NC(=O)[C@H](CCCCN)NC(=O)CNC(=O)[C@H](CCCCN)NC(=O)[C@]1(C)CCCC=CCCC[C@](C)(NC(=O)CN)C(=O)N[C@@H](Cc2ccccc2)C(=O)N[C@@H](CO)C(=O)N[C@@H](CCCCN)C(=O)N1)C(=O)N[C@@H](CCCCN)C(=O)N[C@@H](CC(N)=O)C(=O)N[C@@H](CC(C)C)C(=O)N[C@@]1(C)CCCC=CCCC[C@@](C)(C(=O)N[C@@H](CCCCN)C(=O)NCC(N)=O)NC(=O)CNC(=O)[C@H](CO)NC(=O)[C@H]([C@@H](C)CC)NC1=O [compound 1] (H-G[S5]FSK[S5]KGKKIKNL[S5]ISG[S5]KG-NH2; staple 2-6, 15-19) | 47 µg/mL (≈ 20.5 µM) | 48 µg/mL (≈ 21 µM) |
| CC[C@H](C)[C@H](NC(=O)[C@H](CCCCN)NC(=O)[C@H](CCCCN)NC(=O)CNC(=O)[C@H](CCCCN)NC(=O)[C@]1(C)CCCC=CCCC[C@](C)(NC(=O)CN)C(=O)N[C@@H](CCCCN)C(=O)N[C@@H](CO)C(=O)N[C@@H](CCCCN)C(=O)N1)C(=O)N[C@@H](CCCCN)C(=O)N[C@@H](CC(N)=O)C(=O)N[C@@H](CC(C)C)C(=O)N[C@@]1(C)CCCC=CCCC[C@@](C)(C(=O)N[C@@H](CCCCN)C(=O)NCC(N)=O)NC(=O)CNC(=O)[C@H](CO)NC(=O)[C@H]([C@@H](C)CC)NC1=O [compound 2] (H-G[S5]KSK[S5]KGKKIKNL[S5]ISG[S5]KG-NH2; staple 2-6, 15-19) | 109 µg/mL (≈ 48 µM) | 203 µg/mL (≈ 89.4 µM) |
| CC[C@H](C)[C@H](NC(=O)[C@H](CCCCN)NC(=O)[C@H](CCCCN)NC(=O)CNC(=O)[C@H](CCCCN)NC(=O)[C@]1(C)CCCC=CCCC[C@](C)(NC(=O)CN)C(=O)N[C@@H](Cc2ccccc2)C(=O)N[C@@H](CO)C(=O)N[C@@H](CCCCN)C(=O)N1)C(=O)N[C@@H](CCCCN)C(=O)N[C@@H](CC(N)=O)C(=O)N[C@@H](CC(C)C)C(=O)N[C@@]1(C)CCCC=CCCC[C@@](C)(C(=O)N[C@@H](CCCCN)C(=O)NCC(N)=O)NC(=O)[C@H](CCCCN)NC(=O)[C@H](CO)NC(=O)[C@H]([C@@H](C)CC)NC1=O [compound 3] (H-G[S5]FSK[S5]KGKKIKNL[S5]ISK[S5]KG-NH2; staple 2-6, 15-19) | 57 µg/mL (≈ 24.1 µM) | 119 µg/mL (≈ 50.4 µM) |
| CC[C@H](C)[C@H](NC(=O)[C@H](CCCCN)NC(=O)[C@H](CCCCN)NC(=O)CNC(=O)[C@H](CCCCN)NC(=O)[C@]1(C)CCCC=CCCC[C@](C)(NC(=O)CN)C(=O)N[C@@H](Cc2ccccc2)C(=O)N[C@@H](CO)C(=O)N[C@@H](CCCCN)C(=O)N1)C(=O)N[C@@H](CCCCN)C(=O)N[C@@H](CC(N)=O)C(=O)N[C@@H](CC(C)C)C(=O)N[C@@]1(C)CCCC=CCCC[C@@](C)(C(=O)N[C@@H](CCCCN)C(=O)N[C@@H](CCCCN)C(N)=O)NC(=O)CNC(=O)[C@H](CO)NC(=O)[C@H]([C@@H](C)CC)NC1=O [compound 4] (H-G[S5]FSK[S5]KGKKIKNL[S5]ISG[S5]KK-NH2; staple 2-6, 15-19) | 24 µg/mL (≈ 10.2 µM) | 34 µg/mL (≈ 14.4 µM) |
| CC[C@H](C)[C@H](NC(=O)[C@H](CCCCN)NC(=O)[C@H](CCCCN)NC(=O)CNC(=O)[C@H](CCCCN)NC(=O)[C@]1(C)CCCC=CCCC[C@](C)(NC(=O)CN)C(=O)N[C@@H](CCCCN)C(=O)N[C@@H](CO)C(=O)N[C@@H](CCCCN)C(=O)N1)C(=O)N[C@@H](CCCCN)C(=O)N[C@@H](CC(N)=O)C(=O)N[C@@H](CC(C)C)C(=O)N[C@@]1(C)CCCC=CCCC[C@@](C)(C(=O)N[C@@H](CCCCN)C(=O)NCC(N)=O)NC(=O)[C@H](CCCCN)NC(=O)[C@H](CO)NC(=O)[C@H]([C@@H](C)CC)NC1=O [compound 5] (H-G[S5]KSK[S5]KGKKIKNL[S5]ISK[S5]KG-NH2; staple 2-6, 15-19) | 100 µg/mL (≈ 42.7 µM) | 180 µg/mL (≈ 76.9 µM) |
| CC[C@H](C)[C@H](NC(=O)[C@H](CCCCN)NC(=O)[C@H](CCCCN)NC(=O)CNC(=O)[C@H](CCCCN)NC(=O)[C@]1(C)CCCC=CCCC[C@](C)(NC(=O)CN)C(=O)N[C@@H](CCCCN)C(=O)N[C@@H](C(C)C)C(=O)N[C@@H](CCCCN)C(=O)N1)C(=O)N[C@@H](CCCCN)C(=O)N[C@@H](CC(N)=O)C(=O)N[C@@H](CC(C)C)C(=O)N[C@@]1(C)CCCC=CCCC[C@@](C)(C(=O)N[C@@H](CCCCN)C(=O)NCC(N)=O)NC(=O)CNC(=O)[C@H](CO)NC(=O)[C@H]([C@@H](C)CC)NC1=O [compound 6] (H-G[S5]KVK[S5]KGKKIKNL[S5]ISG[S5]KG-NH2; staple 2-6, 15-19) | 200 µg/mL (≈ 87.6 µM) | 215 µg/mL (≈ 94.2 µM) |
| CC[C@H](C)[C@H](NC(=O)[C@H](CCCCN)NC(=O)[C@H](CCCCN)NC(=O)[C@@H](NC(=O)[C@H](CCCCN)NC(=O)[C@]1(C)CCCC=CCCC[C@](C)(NC(=O)CN)C(=O)N[C@@H](CCCCN)C(=O)N[C@@H](CO)C(=O)N[C@@H](CCCCN)C(=O)N1)C(C)C)C(=O)N[C@@H](CCCCN)C(=O)N[C@@H](CC(N)=O)C(=O)N[C@@H](CC(C)C)C(=O)N[C@@]1(C)CCCC=CCCC[C@@](C)(C(=O)N[C@@H](CCCCN)C(=O)NCC(N)=O)NC(=O)CNC(=O)[C@H](CO)NC(=O)[C@H]([C@@H](C)CC)NC1=O [compound 7] (H-G[S5]KSK[S5]KVKKIKNL[S5]ISG[S5]KG-NH2; staple 2-6, 15-19) | 72 µg/mL (≈ 31.1 µM) | 191 µg/mL (≈ 82.6 µM) |
| CC[C@H](C)[C@@H]1NC(=O)[C@@](C)(NC(=O)[C@H](CC(C)C)NC(=O)[C@H](CC(N)=O)NC(=O)[C@H](CCCCN)NC(=O)[C@@H](NC(=O)[C@H](CCCCN)NC(=O)[C@H](CCCCN)NC(=O)CNC(=O)[C@H](CCCCN)NC(=O)[C@]2(C)CCCC=CCCC[C@](C)(NC(=O)CN)C(=O)N[C@@H](CCCCN)C(=O)N[C@@H](CO)C(=O)N[C@@H](CCCCN)C(=O)N2)C(C)C)CCCC=CCCC[C@@](C)(C(=O)N[C@@H](CCCCN)C(=O)NCC(N)=O)NC(=O)CNC(=O)[C@H](CO)NC1=O [compound 8] (H-G[S5]KSK[S5]KGKKVKNL[S5]ISG[S5]KG-NH2; staple 2-6, 15-19) | > 200 µg/mL | > 200 µg/mL |
| CC[C@H](C)[C@@H]1NC(=O)[C@@](C)(NC(=O)[C@H](CC(C)C)NC(=O)[C@H](CC(N)=O)NC(=O)[C@H](CCCCN)NC(=O)[C@H](CC(C)C)NC(=O)[C@H](CCCCN)NC(=O)[C@H](CCCCN)NC(=O)CNC(=O)[C@H](C)NC(=O)[C@]2(C)CCCC=CCCC[C@](C)(NC(=O)CN)C(=O)N[C@@H](CCCCN)C(=O)N[C@@H](CO)C(=O)N[C@@H](CCCCN)C(=O)N2)CCCC=CCCC[C@@](C)(C(=O)N[C@@H](CCCCN)C(=O)N[C@@H](CC(N)=O)C(N)=O)NC(=O)CNC(=O)[C@H](CO)NC1=O [compound 9] (H-G[S5]KSK[S5]AGKKLKNL[S5]ISG[S5]KN-NH2; staple 2-6, 15-19) | 107 µg/mL (≈ 47.1 µM) | 184 µg/mL (≈ 81 µM) |
| CC[C@H](C)[C@@H]1NC(=O)[C@@](C)(NC(=O)[C@H](CC(C)C)NC(=O)[C@H](CC(N)=O)NC(=O)[C@H](CCCCN)NC(=O)[C@H](Cc2ccc(C(C)(C)C)cc2)NC(=O)[C@H](CCCCN)NC(=O)[C@H](CCCCN)NC(=O)CNC(=O)[C@H](CCCCN)NC(=O)[C@]2(C)CCCC=CCCC[C@](C)(NC(=O)CN)C(=O)N[C@@H](CCCCN)C(=O)N[C@@H](CO)C(=O)N[C@@H](CCCCN)C(=O)N2)CCCC=CCCC[C@@](C)(C(=O)N[C@@H](CCCCN)C(=O)N[C@@H](CC(N)=O)C(N)=O)NC(=O)CNC(=O)[C@H](CO)NC1=O [compound 18] (H-G[S5]KSK[S5]KGKK[Phe(4-tBu)]KNL[S5]ISG[S5]KN-NH2; staple 2-6, 15-19) | 21 µg/mL (≈ 8.68 µM) | – |
